Reference: publication PMC8922281, “Synthesis and In Vitro Biological Evaluation of Quinolinyl Pyrimidines Targeting Type II NADH-Dehydrogenase (NDH-2)” (ACS Infectious Diseases, 2022)
Converted amounts (≈) assume the structure as drawn. “And” between values parts separate entries of the source, which are not always exact repeats. Identical values can stand only once. Like-named read-outs stand apart in the source and are kept apart here.

Key:
MtNDH-2 = MtNDH-2 (Mycobacterium tuberculosis, UniProt P95160); experiment: biochemical; design: species or system M. tuberculosis; details: MtNDH-2 IC50
Chain of MtNDH-2 (P95160 2-463, added parts left off): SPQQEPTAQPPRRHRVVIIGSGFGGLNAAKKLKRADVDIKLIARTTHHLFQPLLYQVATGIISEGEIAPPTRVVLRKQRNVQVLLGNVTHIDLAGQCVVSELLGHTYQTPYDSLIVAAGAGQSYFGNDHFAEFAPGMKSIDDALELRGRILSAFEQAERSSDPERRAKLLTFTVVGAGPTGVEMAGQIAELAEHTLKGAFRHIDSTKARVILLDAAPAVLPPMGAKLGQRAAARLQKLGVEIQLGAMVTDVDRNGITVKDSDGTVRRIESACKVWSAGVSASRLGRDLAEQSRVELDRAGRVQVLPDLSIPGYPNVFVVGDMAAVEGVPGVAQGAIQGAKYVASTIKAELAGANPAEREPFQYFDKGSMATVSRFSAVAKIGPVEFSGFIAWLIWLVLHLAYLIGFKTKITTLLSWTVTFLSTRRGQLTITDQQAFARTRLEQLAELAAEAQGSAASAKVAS

MsNDH-2 = MsNDH-2 (Mycolicibacterium smegmatis, UniProt A0QYD6); experiment: Inhibition of MsNDH-2 (NADH oxidation with menadione, absorbance at 340 nm); assay type: biochemical, M. smegmatis
Chain of MsNDH-2 (A0QYD6 1-457): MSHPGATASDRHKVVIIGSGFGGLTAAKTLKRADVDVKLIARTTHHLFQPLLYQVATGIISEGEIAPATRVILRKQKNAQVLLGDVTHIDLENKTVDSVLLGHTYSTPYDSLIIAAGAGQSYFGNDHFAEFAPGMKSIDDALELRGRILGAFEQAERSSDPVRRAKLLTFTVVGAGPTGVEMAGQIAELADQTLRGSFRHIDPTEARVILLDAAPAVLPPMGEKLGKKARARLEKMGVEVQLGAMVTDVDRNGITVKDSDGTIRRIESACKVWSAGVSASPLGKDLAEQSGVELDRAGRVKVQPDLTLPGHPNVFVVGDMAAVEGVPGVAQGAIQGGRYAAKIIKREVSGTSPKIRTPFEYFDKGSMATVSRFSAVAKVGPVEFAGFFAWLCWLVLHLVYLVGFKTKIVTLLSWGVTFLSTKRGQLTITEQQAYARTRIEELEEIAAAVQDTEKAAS

[1] = system: E. coli (ATCC 25922, wild-type); experiment: MIC on ESKAPE pathogens, E. coli wild-type; assay type: cell-based; details: Escherichia coli
[2] = system: E. coli (ΔtolC efflux-defective mutant, isogenic to ATCC 25922); experiment: microbe, parasite or virus in culture; assay type: cell-based; details: Escherichia coli, ATCC25922, read-out: MIC Ec ΔtolC
[3] = system: E. coli (D22, lpxC mutant, drug-hypersensitive); experiment: microbe, parasite or virus in culture; assay type: cell-based; details: Escherichia coli, read-out: MIC Ec D22
[4] = system: P. aeruginosa (PAO1, wild-type); experiment: MIC on ESKAPE pathogens, P. aeruginosa wild-type; assay type: cell-based; details: Pseudomonas aeruginosa, PAO1, P. aeruginosa PAO1, wild-type; read-out: MIC Pa WT
[5] = system: P. aeruginosa (PAO750 efflux-defective mutant, isogenic to PAO1); experiment: microbe, parasite or virus in culture; assay type: cell-based; details: Pseudomonas aeruginosa, PAO1, read-out: MIC Pa efflux
[6] = system: A. baumannii (ATCC 19606, wild-type); experiment: MIC on ESKAPE pathogens, A. baumannii; assay type: cell-based; details: Acinetobacter baumannii
[7] = system: S. aureus (ATCC 29213, wild-type); experiment: MIC on ESKAPE pathogens, S. aureus; assay type: cell-based; details: Staphylococcus aureus, ATCC29213
[8] = system: M. tuberculosis strain H37Rv (ATCC 25618); experiment: MIC on M. tuberculosis by resazurin reduction microplate assay (REMA); assay type: cell-based; details: Mycobacterium tuberculosis, M. tuberculosis H37Rv, read-out: MIC Mtb
[9] = Cytotoxicity on the MRC-5 cell line (resazurin); assay type: cell-based; details: human, MRC-5SV2 cells, MRC-5SV2, 3 days
Description: MRC-5SV2 cells were cultured in Earl’s MEM + 5% FCSi. Assays were performed in 96-well microtiter plates, each well containing about 10^4 cells/well. After 3 days of incubation with or without compounds, cell viability was assessed fluorimetrically after the addition of resazurin (λex 550 nm, λem 590 nm). The results were expressed as % reduction in cell growth/viability compared to untreated control wells and CC50 was determined. Testing/retesting strategy was as described above for HepG2 cells.

[10] = system: K. pneumonia (ATCC 13833, wild-type); experiment: MIC on ESKAPE pathogens, K. pneumoniae
[11] = 95% confidence interval in parentheses, 50 nM enzyme, 50 μM menadione, >100: no significant inhibition at 100 μM
[12] = same IC50 given in μg/mL to assist comparisons with MICs
[13] = ATCC25922, E. coli ATCC 25922, wild-type, read-out: MIC Ec WT
[14] = ATCC19606, A. baumannii ATCC 19606, wild-type, read-out: MIC Ab WT

SMILES	IC50 (MtNDH-2)	IC50 (MsNDH-2; [11]) [µM]	IC50 (MsNDH-2; [12]) [µM]	MIC [1, 13] [µg/mL]	MIC [2] [µg/mL]	MIC [3] [µg/mL]	MIC [4] [µg/mL]	MIC [5] [µg/mL]	MIC [6, 14] [µg/mL]	MIC [7] [µg/mL]	MIC [8] [µg/mL]	IC50 at 3 days ([9]; resazurin) [µM]	IC50 at 3 days ([9]; value in parentheses) [µg/mL]	MIC Kp WT [10] [µg/mL]	MIC ([1]; ATCC25922, read-out: MIC Ec WT) [µg/mL]	MIC ([6]; ATCC19606, read-out: MIC Ab WT) [µg/mL]
CNCCN(C)c1cc(Nc2ccc3nc(-c4ccc(F)cc4)cc(N)c3c2)nc(N)n1 [Compound 8m, N^4-(4-Amino-2-(4-fluorophenyl)quinolin-6-yl)-N^6-methyl-N^6-(2-(methylamino)ethyl)pyrimidine-2,4,6-triamine]	16 µM	19	18.5	> 64	32 (≈ 74 µM)	32 (≈ 74 µM)	32 (≈ 74 µM)	16 (≈ 37 µM)	> 64	> 64	21.6 (≈ 49.9 µM)	7.6	3.3	>64		
CN(C)c1cc(Nc2ccc3nc(-c4ccc(F)cc4)cc(N)c3c2)nc(N)n1 [Compound 8k, N^4-(4-Amino-2-(4-fluorophenyl)quinolin-6-yl)-N^6,N^6-dimethylpyrimidine-2,4,6-triamine]	1.3 µM and 1.31 µM	2.7	2.82	32 (≈ 82.2 µM)	2 (≈ 5.14 µM)	8 (≈ 20.5 µM)	> 64	4 (≈ 10.3 µM)	8 (≈ 20.5 µM)	8 (≈ 20.5 µM)	5.9 (≈ 15.2 µM)	1.8	0.7	64 (≈ 164 µM)		
CN(CCO)c1cc(Nc2ccc3nc(-c4ccc(F)cc4)cc(N)c3c2)nc(N)n1 [Compound 8l, 2-((2-Amino-6-((4-amino-2-(4-fluorophenyl)quinolin-6-yl)amino)pyrimidin-4-yl)(methyl)amino)ethan-1-ol]	11 µM and 11.4 µM	16	16.2	16 (≈ 38.1 µM)	8 (≈ 19.1 µM)	8 (≈ 19.1 µM)	> 64	> 64	> 64	32 (≈ 76.3 µM)	9.8 (≈ 23.4 µM)	7.8	3.3	>64		
Nc1nc(Nc2ccc3nc(-c4ccc(F)cc4)cc(N)c3c2)cc(N2CCC(CO)CC2)n1 [Compound 8n, (1-(2-Amino-6-((4-amino-2-(4-fluorophenyl)quinolin-6-yl)amino)pyrimidin-4-yl)piperidin-4-yl)methanol]	4.1 µM and 4.13 µM			64 (≈ 139 µM)	16 (≈ 34.8 µM)	32 (≈ 69.6 µM)	> 64	64 (≈ 139 µM)	64 (≈ 139 µM)	32 (≈ 69.6 µM)	17.7 (≈ 38.5 µM)	3.7	1.7	>64		
Nc1nc(Nc2ccc3nc(-c4ccc(F)cc4)cc(N)c3c2)cc(OCCO)n1 [Compound 9b, 2-((2-Amino-6-((4-amino-2-(4-fluorophenyl)quinolin-6-yl)amino)pyrimidin-4-yl)oxy)ethan-1-ol]	2.5 µM and 2.46 µM	13	12.8	32 (≈ 78.7 µM)	8 (≈ 19.7 µM)	16 (≈ 39.4 µM)	≥ 64	32 (≈ 78.7 µM)	32 (≈ 78.7 µM)	16 (≈ 39.4 µM)	9.8 (≈ 24.1 µM)	8	3.3	32 (≈ 78.7 µM)		
CC(C)N1CCN(c2cc(Nc3ccc4nc(-c5ccc(F)cc5)cc(N)c4c3)nc(N)n2)CC1 [Compound 8d, N^6-(2-Amino-6-(4-isopropylpiperazin-1-yl)pyrimidin-4-yl)-2-(4-fluorophenyl)quinoline-4,6-diamine]	3.6 µM	19	18.8	64 (≈ 135 µM)	32 (≈ 67.7 µM)	32 (≈ 67.7 µM)	64 (≈ 135 µM)	32 (≈ 67.7 µM)	> 128	128 (≈ 271 µM)	7.6 (≈ 16.1 µM)			128 (≈ 271 µM)		
Nc1cc(-c2ccc(F)cc2)nc2ccc(Nc3cc(N4CCNCC4)ncn3)cc12 [Compound 15, 2-(4-Fluorophenyl)-N^6-(6-(piperazin-1-yl)pyrimidin-4-yl)quinoline-4,6-diamine]	6 µM and 6.02 µM	23	20.9	> 64	16 (≈ 38.5 µM)	16 (≈ 38.5 µM)	32 (≈ 77 µM)	8 (≈ 19.3 µM)	> 64	> 64	> 42	1.7	0.7	>64		
CCOc1cc(Nc2ccc3nc(-c4ccc(F)cc4)cc(N)c3c2)nc(N)n1 [Compound 9a, N^6-(2-Amino-6-ethoxypyrimidin-4-yl)-2-(4-fluorophenyl)quinoline-4,6-diamine]	0.9 µM and 0.896 µM	5.3	5.38	64 (≈ 164 µM)	2 (≈ 5.12 µM)	4 (≈ 10.2 µM)	> 128	16 (≈ 41 µM)	2 (≈ 5.12 µM)	2 (≈ 5.12 µM)	3.4 (≈ 8.71 µM)	1.6	0.6	64 (≈ 164 µM)		
Nc1nc(Nc2ccc3nc(-c4ccc(F)cc4)cc(N)c3c2)cc(N2CCN(CCO)CC2)n1 [Compound 8e, 2-(4-(2-Amino-6-((4-amino-2-(4-fluorophenyl)quinolin-6-yl)amino)pyrimidin-4-yl)piperazin-1-yl)ethan-1-ol]	6.6 µM and 6.53 µM	> 100	> 99		32 (≈ 67.4 µM)	32 (≈ 67.4 µM)	64 (≈ 135 µM)	> 128		128 (≈ 270 µM)	16 (≈ 33.7 µM)			128 (≈ 270 µM)	> 128	> 128
CC(C)(C)OC(=O)NC1CCN(c2cc(Nc3ccc4nc(-c5ccc(F)cc5)cc(N)c4c3)nc(N)n2)CC1 [Compound 8i, tert-Butyl (1-(2-Amino-6-((4-amino-2-(4-fluorophenyl)quinolin-6-yl)amino)pyrimidin-4-yl)piperidin-4-yl)carbamate]	0.441 µM	0.95	0.918	64 (≈ 118 µM)	8 (≈ 14.7 µM)	4 (≈ 7.34 µM)	64 (≈ 118 µM)	32 (≈ 58.8 µM)	8 (≈ 14.7 µM)	1 (≈ 1.84 µM)	6.1 (≈ 11.2 µM)	1.3	0.7	64 (≈ 118 µM)		
CN1CCCC(COc2cc(Nc3ccc4nc(-c5ccc(F)cc5)cc(N)c4c3)nc(N)n2)C1 (centres unmarked) [Compound 9c, N^6-(2-Amino-6-((1-methylpiperidin-3-yl)methoxy)pyrimidin-4-yl)-2-(4-fluorophenyl)quinoline-4,6-diamine]	3.3 µM and 3.38 µM	14	13.7	64 (≈ 135 µM)	16 (≈ 33.8 µM)	32 (≈ 67.6 µM)	> 64	16 (≈ 33.8 µM)	> 64	64 (≈ 135 µM)	37.5 (≈ 79.2 µM)			>64		
